Reference: the supplement of paper PMC10883282

Tests used:
Assay in all cases: relative viability vs DMSO control (72 h) (fraction); higher = more viable cells
[1] = system: HS729
In short: (§1)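 Relative viability was measured with ATPLite and expressed as percent growth, averaged across up to triplicate wells. Sarcoma cell lines had been seeded in 384-well plates to reach 80–90% confluence, dosed after 24 h, and incubated 72 h at 37 °C, 5% CO2. All data were rescaled on a scale where 1 is full and 0 is none.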

[2] = system: SK-LMS-1
In short: as §1

[3] = system: MES-SA
In short: as §1

[4] = system: G401
In short: as §1

[5] = system: SW872
In short: as §1

[6] = system: A204
In short: as §1

[7] = system: SYO-1
In short: as §1

[8] = system: KHOS-NP
In short: as §1

[9] = system: SW684
In short: as §1

[10] = system: VA-ES-BJ
In short: as §1

[11] = system: SW1353
In short: as §1

[12] = system: HT1080
In short: as §1

C=CC(=O)Nc1cc(Nc2nccc(-c3cn(C)c4ccccc34)n2)c(OC)cc1N(C)CCN(C)C [Osimertinib]
Settings	relative viability
[1], 0.00017 µM	1.06
[1], 0.00051 µM	0.954
[1], 0.00152 µM	1.04
[1], 0.00457 µM	0.976
[1], 0.01372 µM	0.944
[1], 0.04115 µM	0.933
[1], 0.1235 µM	0.907
[1], 0.3704 µM	0.822
[1], 1.111 µM	0.78
[1], 3.333 µM	0.681
[1], 10 µM	0.533
[2], 0.00017 µM	1.1
[2], 0.00051 µM	1.1
[2], 0.00152 µM	1.08
[2], 0.00457 µM	1.07
[2], 0.01372 µM	1.06
[2], 0.04115 µM	1.03
[2], 0.1235 µM	1.07
[2], 0.3704 µM	1.02
[2], 1.111 µM	0.972
[2], 3.333 µM	0.776
[2], 10 µM	0.032
[3], 0.00017 µM	0.979
[3], 0.00051 µM	0.947
[3], 0.00152 µM	0.961
[3], 0.00457 µM	0.932
[3], 0.01372 µM	0.97
[3], 0.04115 µM	0.941
[3], 0.1235 µM	0.948
[3], 0.3704 µM	0.882
[3], 1.111 µM	0.758
[3], 3.333 µM	0.569
[3], 10 µM	0.29
[4], 0.00017 µM	1.01
[4], 0.00051 µM	1.02
[4], 0.00152 µM	1.03
[4], 0.00457 µM	1.03
[4], 0.01372 µM	1.02
[4], 0.04115 µM	0.976
[4], 0.1235 µM	0.962
[4], 0.3704 µM	0.87
[4], 1.111 µM	0.816
[4], 3.333 µM	0.711
[4], 10 µM	0.0893
[5], 0.00017 µM	1.078
[5], 0.00051 µM	1.06
[5], 0.00152 µM	1.06
[5], 0.00457 µM	1.08
[5], 0.01372 µM	1.04
[5], 0.04115 µM	1.02
[5], 0.1235 µM	1.03
[5], 0.3704 µM	0.988
[5], 1.111 µM	0.894
[5], 3.333 µM	0.761
[5], 10 µM	0.384
[6], 0.00017 µM	1.03
[6], 0.00051 µM	1.04
[6], 0.00152 µM	1.05
[6], 0.00457 µM	1.04
[6], 0.01372 µM	1.01
[6], 0.04115 µM	1.03
[6], 0.1235 µM	1.03
[6], 0.3704 µM	0.9068
[6], 1.111 µM	0.777
[6], 3.333 µM	0.582
[6], 10 µM	0.141
[7], 0.00017 µM	1.02
[7], 0.00051 µM	0.992
[7], 0.00152 µM	0.969
[7], 0.00457 µM	0.971
[7], 0.01372 µM	0.935
[7], 0.04115 µM	0.9
[7], 0.1235 µM	0.847
[7], 0.3704 µM	0.713
[7], 1.111 µM	0.576
[7], 3.333 µM	0.418
[7], 10 µM	-0.0037
[8], 0.00017 µM	1.1
[8], 0.00051 µM	1.11
[8], 0.00152 µM	1.084
[8], 0.00457 µM	1.08
[8], 0.01372 µM	1.07
[8], 0.04115 µM	1.06
[8], 0.1235 µM	1.06
[8], 0.3704 µM	1.05
[8], 1.111 µM	1.05
[8], 3.333 µM	1.02
[8], 10 µM	0.505
[9], 0.00017 µM	1.11
[9], 0.00051 µM	1.18
[9], 0.00152 µM	1.21
[9], 0.00457 µM	1.2
[9], 0.01372 µM	1.16
[9], 0.04115 µM	1.13
[9], 0.1235 µM	1.13
[9], 0.3704 µM	1.12
[9], 1.111 µM	1.11
[9], 3.333 µM	0.984
[9], 10 µM	0.063
[10], 0.00017 µM	1.09
[10], 0.00051 µM	1.09
[10], 0.00152 µM	1.06
[10], 0.00457 µM	1.04
[10], 0.01372 µM	1.03
[10], 0.04115 µM	1.02
[10], 0.1235 µM	0.984
[10], 0.3704 µM	0.926
[10], 1.111 µM	0.877
[10], 3.333 µM	0.752
[10], 10 µM	0.0739
[11], 0.00017 µM	1.014
[11], 0.00051 µM	1.007
[11], 0.00152 µM	1.002
[11], 0.00457 µM	1
[11], 0.01372 µM	0.97
[11], 0.04115 µM	0.96
[11], 0.1235 µM	0.9
[11], 0.3704 µM	0.82
[11], 1.111 µM	0.8
[11], 3.333 µM	0.742
[11], 10 µM	0.0174
[12], 0.00017 µM	1.08
[12], 0.00051 µM	1.09
[12], 0.00152 µM	1.06
[12], 0.00457 µM	1.06
[12], 0.01372 µM	1.04
[12], 0.04115 µM	1.06
[12], 0.1235 µM	1.07
[12], 0.3704 µM	1.03
[12], 1.111 µM	0.992
[12], 3.333 µM	0.935
[12], 10 µM	0.0308
